Data from patent US7348025B2, “Small particle liposome aerosols for delivery of anticancer drugs” (priority 1999, dated 2008).
Values joined by “and” are separate entries in the source; they are usually repeats but may differ in a detail not shown here. Equal values may be shown once. Read-outs that look alike come from different tables or passages of the source.

Key:
[1] = Time dependent organ distribution of CPT after intranasal administration of DLPC liposomes; type: in vivo; details: other: intranasal instillation, mice, intranasal DLPC liposomal CPT 7 μg per mouse, read-out: CPT in tissue
Protocol: The mobile phase was 30% acetonitrile and 70% of 0.1% glacial acetic acid. CPT was detected using the Waters 470 scanning fluorescence detector set to an excitation wavelength of 370 nm and an emission wavelength of 440 nm. […] The data were analyzed with the Waters Millenium software. […]
CPT was administered in liposomal formulation prepared with DLPC with initial drug concentration 0.2 mg/ml.
35 μL of suspension was installed to each animal (group of 3 animals was treated for each time point).

[2] = Tissue distribution of CPT after inhalation of CPT liposome aerosol; type: in vivo, Mouse; details: mice; for CPT in tissue: individual animals; for concentration at 15 min: mouse, in vivo, 486 ng per mouse, 4 animals, read-out: MEAN (±SD) CPT in tissue
Protocol: The final suspension was clear. If precipitation occurred, it was reheated to 50-60° C. The preparation was frozen in liquid nitrogen and lyophilized overnight. For use the material was dissolved in sterile water to the appropriate drug concentration, not exceeding 1.0 mg/ml for either drug. The efficiency of incorporation of drug in the liposomes was examined qualitatively by microscopic examination under polarized light. Unincorporated drug was seen as bi-refringent crystals. The efficiency of incorporation was examined by centrifugation of aqueous suspensions of liposomes on Percoll™ gradients. One-tenth ml of suspension was layered over 2 ml of gradient and centrifuged at 2000 rpm for 25-30 minutes. Liposomes layer at the water-Percoll interface, while unincorporated drug was deposited at the bottom of the tube. Many other lipids may be substituted for DLPC in the formulation and use of liposomes for delivery of drugs by aerosol (26).
(§1) The mobile phase was 30% acetonitrile and 70% of 0.1% glacial acetic acid. CPT was detected using the Waters 470 scanning fluorescence detector set to an excitation wavelength of 370 nm and an emission wavelength of 440 nm. […] The data were analyzed with the Waters Millenium software.
The deposited dose was calculated to be 486 ng per mouse. The mean concentrations in lungs and liver were similar with smaller concentrations in the other sites examined. […] Drug was cleared promptly from the lungs so that 15 minutes after stopping nebulization only negligible amounts of drug were present in the lungs. Liver, kidney and spleen had substantial amounts of drug initially which gradually diminished through the one hour of study. […] These studies indicate substantial immediate deposition of drug in the lungs with rapid clearance to the viscera. The amount of drug contributed by absorption from swallowed drug is uncertain.

[3] = Time dependent organ distribution of CPT after intramuscular administration; type: in vivo; details: mouse, mice, i.m. CPT in DMSO/saline suspension, read-out: CPT in tissue
Protocol: as §1
Drug disappeared very slowly from the site of intramuscular injection in the first 12 hours, with only very small concentrations detected in the liver and virtually no drug present at other sites. Concentrations in the blood were negligible throughout the study. The dose administered was the same as that given by intranasal instillation. These findings indicate a speedier and more efficient systemic absorption of drug after pulmonary administration of drug than by the intramuscular route. It is likely that deposition in organs and vascular spaces will increase the opportunity for exposure to albumin molecules and degradation to the carboxyl form of the drug.

[4] = Blood, after 15 minutes inhalation of CPT liposome aerosol
[5] = Kidney, after 15 minutes inhalation of CPT liposome aerosol
[6] = Liver, after 15 minutes inhalation of CPT liposome aerosol
[7] = Spleen, after 15 minutes inhalation of CPT liposome aerosol
[8] = site of injection, 7 µg/mouse, Site of inj.
[9] = whole blood, 7 μg per mouse, Blood

CC[C@@]1(O)C(=O)OCc2c1cc1n(c2=O)Cc2cc3ccccc3nc2-1 [CPT, 20-S-camptothecin]
concentration at 0 min ([1]; Kidney): 542 ± 174 ng/g | concentration at 15 min ([1]; Kidney): 190 ± 57 ng/g | concentration at 30 min ([1]; Kidney): 49 ± 13 ng/g | concentration at 60 min ([1]; Kidney): 24 ± 21 ng/g | concentration at 0 min ([1]; Liver): 651 ± 418 ng/g | concentration at 15 min ([1]; Liver): 255 ± 101 ng/g | concentration at 30 min ([1]; Liver): 66 ± 17 ng/g | concentration at 60 min ([1]; Liver): 34 ± 7 ng/g | concentration at 0 min ([1]; Lung): 1290 ± 657 ng/g | concentration at 15 min ([1]; Lung): 19 ± 3 ng/g | concentration at 30 min ([1]; Lung): 36 ± 23 ng/g | concentration at 60 min ([1]; Lung): 7 ± 3 ng/g | concentration at 0 min ([1]; Spleen): 351 ± 137 ng/g | concentration at 15 min ([1]; Spleen): 84 ± 32 ng/g | concentration at 30 min ([1]; Spleen): 21 ± 8 ng/g | concentration at 60 min ([1]; Spleen): 7 ± 2 ng/g | concentration at 0 min ([1]; whole blood, Blood): 213 ± 19 ng/g | concentration at 15 min ([1]; whole blood, Blood): 53 ± 20 ng/g | concentration at 30 min ([1]; whole blood, Blood): 8 ± 3 ng/g | concentration at 60 min ([1]; whole blood, Blood): 4 ± 2 ng/g | CPT in tissue [2, 4]: 7.1 ng/gm and 8.3 ng/gm and 22.6 ng/gm and 17.7 ng/gm | CPT in tissue [2, 5]: 21.8 ng/gm and 18.0 ng/gm and 50.0 ng/gm and 29.3 ng/gm | CPT in tissue [2, 6]: 44.3 ng/gm (2×) and 21.9 ng/gm and 178.0 ng/gm | CPT in tissue ([2]; Lung, after 15 minutes inhalation of CPT liposome aerosol (0.2 mg/ml in nebulizer)): 48.0 ng/gm and 27.0 ng/gm and 77.5 ng/gm and 52.0 ng/gm | CPT in tissue [2, 7]: 16.4 ng/gm and 11.4 ng/gm and 25.0 ng/gm and 12.0 ng/gm | concentration at 15 min [2, 4]: 13.9 ± 7.5 ng/g | concentration at 15 min [2, 5]: 29.8 ± 14.3 ng/g | concentration at 15 min [2, 6]: 72.1 ± 71.4 ng/g | concentration at 15 min ([2]; Lung, after 15 minutes inhalation of CPT liposome aerosol): 51.1 ± 20.7 ng/g | concentration at 15 min [2, 7]: 16.2 ± 6.3 ng/g | concentration at 0 min ([3]; 7 μg per mouse, Kidney): 2 ng/g | concentration at 30 min ([3]; 7 μg per mouse, Kidney): 40 ± 14 ng/g | concentration at 60 min ([3]; 7 μg per mouse, Kidney): 26 ± 7 ng/g | concentration at 1200 min ([3]; 7 μg per mouse, Kidney): 15 ± 5 ng/g | concentration at 0 min ([3]; 7 μg per mouse, Spleen): 2 ± 1 ng/g | concentration at 30 min ([3]; 7 μg per mouse, Spleen): 18 ± 9 ng/g | concentration at 60 min ([3]; 7 μg per mouse, Spleen): 11 ± 5 ng/g | concentration at 1200 min ([3]; 7 μg per mouse, Spleen): 5 ± 1 ng/g | concentration at 60 min ([3]; 7 µg/mouse, Blood): 8 ± 1 ng/g | concentration at 1200 min ([3]; 7 µg/mouse, Blood): 4 ± 1 ng/g | concentration at 0 min ([3]; 7 µg/mouse, Liver): 3 ± 1 ng/g | concentration at 30 min ([3]; 7 µg/mouse, Liver): 87 ± 74 ng/g | concentration at 60 min ([3]; 7 µg/mouse, Liver): 136 ± 107 ng/g | concentration at 1200 min ([3]; 7 µg/mouse, Liver): 126 ± 116 ng/g | concentration at 0 min ([3]; 7 µg/mouse, Lung): 2 ± 1 ng/g | concentration at 30 min ([3]; 7 µg/mouse, Lung): 4 ± 2 ng/g | concentration at 60 min ([3]; 7 µg/mouse, Lung): 3 ± 3 ng/g | concentration at 1200 min ([3]; 7 µg/mouse, Lung): 4 ± 3 ng/g | concentration at 0 min [3, 8]: 6920 ± 265 ng/g | concentration at 30 min [3, 8]: 4310 ± 1550 ng/g | concentration at 60 min [3, 8]: 4610 ± 1410 ng/g | concentration at 1200 min [3, 8]: 1540 ± 751 ng/g | concentration at 0 min [3, 9]: 2 ± 1 ng/g | concentration at 30 min [3, 9]: 12 ± 5 ng/g
